Results on six molecules are retold here after US9695222B2, “Ghrelin mimetic polypeptide hapten immunoconjugates having improved solubility and immunogenicity and methods of use thereof” (The Scripps Research Institute, priority 2011, dated 2017).

In brackets after ≈: the same amount, converted by molar mass. Like-named read-outs stand apart in the source and are kept apart here. Non-standard residues stand in square brackets, D forms with d. Residues, ends and D or L forms follow the SMILES beside them. *: point of attachment. PEG4 = NCCOCCOCCOCCOCCC(=O)O; Octanoyl = CCCCCCCC(=O)*; Butyryl = CCCC(=O)*

The test system of one data set is Ser-3-n-octanoyl ghrelin. Description: Competition ELISA of plasma of immunized mice (Kd-app for ghrelin). The conditions noted are these: Tables 4A and 4B. The class given is binding. The protocol:
Immunization involved five (5) immunizations over ten (10) weeks. Age and weight-matched mice received immunizations (i.p. 0.2 mL) 90 min before the dark cycle on experimental days 0, 14 (2 weeks), 28 (4 weeks), 49 (7 weeks) and 70 (10 weeks). All immunizations used ALUM (Pierce) as the adjuvant, and contained 50 μg of protein (i.e. immunoconjugates of Ghr1, Ghr2, PEG-Ghr4 and PEG-Ghr5 peptides with carrier proteins KLH, TT or CRM197). Tail blood was collected one week post-immunization, centrifuged and plasma analyzed for antibody titers and ghrelin binding affinity.
For competitive ELISA, plates (96-well) were coated overnight at 4° C. with freshly prepared ghrelin-BSA conjugate. The plates were blocked with 4% skim milk, washed and plasma samples were added at appropriate dilutions. The plates were washed and Ser-3-n-octanoyl ghrelin was added to the wells in a concentration series starting at 100 μM. Plates were incubated for 1 h at 37° C., thoroughly washed, and goat anti-mouse-horseradish peroxidase (HRP) conjugate (Pierce) was added. After an incubation period of 1 h at RT, plates were thoroughly washed again and the HRP substrate (TMB substrate kit; Pierce) was added, the reaction was allowed to develop for 15 min and stopped by the addition of 2M H2SO4. The absorbance (450 nm) was read and the values plotted using GraFit (Erithacus Software Ltd). The free antigen concentration at which the absorbance value is 50% of the maximum absorbance was considered the average Kd-app of the plasma for ghrelin.
(In an ELISA, binding on a coated surface is turned into a signal by an enzyme label.)

Another data set in a line: physchem. The conditions noted are these: water.
Assay in data set [1]: not given
This is another data set of the same source.

The nature of data set [2]: Hydrolytic stability of ghrelin haptens in buffered solutions for 7 days. The class given is physicochemical. The protocol:
To test the hydrolytic stability of the Ghrelin haptens, 1 mg/mL solutions of Ghr1, Ghr4, Ghr5 and the corresponding Ghr4 and Ghr5 haptens comprising the spacer moiety (PEG-Ghr4 and PEG-Ghr5 respectively) were maintained in buffered solutions for 7 days at either 4° C. or 37° C. at pH values of pH5 (in 10 mM citrate buffer), pH6 (in 10 mM maleate buffer) or pH7 (in 10 mM phosphate buffer). FIG. 2 is a graphical representation comparing the percentage of the active acyl form of each Ghrelin hapten present after seven days with the percentage of total hydrolysis and the percentage of total oxidative degradation for each hapten.

One may read the solubility as the concentration that dissolves in the medium under given conditions. With `CCCC(=O)OC[C@H](NC(=O)[C@H](CO)NC(=O)CN)C(=O)N[C@@H](Cc1ccccc1)C(=O)N[C@@H](CC(C)C)C(=O)N[C@@H](CO)C(=O)N1CCC[C@H]1C(=O)N[C@@H](CCC(=O)O)C(=O)N[C@@H](Cc1c[nH]cn1)C(=O)N[C@@H](CCC(N)=O)C(=O)N[C@@H](CS)C(N)=O` [Ghr1], the “Affinity of induced anti-ghrelin antibodies” value in the data set with Ser-3-n-octanoyl ghrelin was “high affinity anti-ghrelin antibodies in some instances”. The “Selectivity of induced antibodies for acylated ghrelin over the des-acyl form” value in the data set on Ser-3-n-octanoyl ghrelin is given as “no particular selectivity”. Moreover, the solubility in “physchem” (pH 5), in “physchem” (pH 6) and in “physchem” (pH 7) was more than 1000 µg/mL throughout.
Take `CC(C)C[C@H](NC(=O)[C@H](CCCCN)NC(=O)[C@H](C)NC(=O)[C@@H]1CCCN1C(=O)[C@@H]1CCCN1C(=O)[C@H](CCCCN)NC(=O)[C@H](CCCCN)NC(=O)[C@H](CO)NC(=O)[C@H](CCC(=O)O)NC(=O)[C@H](CCCCN)NC(=O)[C@H](CCCNC(=N)N)NC(=O)[C@H](CCC(N)=O)NC(=O)[C@H](CCC(N)=O)NC(=O)[C@@H](N)CS)C(=O)N[C@@H](CCC(N)=O)C(=O)N1CCC[C@H]1C(=O)N[C@@H](CCCNC(=N)N)C(N)=O` [Ghr2]: in the data set with Ser-3-n-octanoyl ghrelin, the “Affinity of induced anti-ghrelin antibodies” value was “high affinity anti-ghrelin antibodies in some instances”. For the same molecule, the “Selectivity of induced antibodies for acylated ghrelin over the des-acyl form” value in the data set with Ser-3-n-octanoyl ghrelin was “no particular selectivity”. For the same molecule, the solubility in the data set “physchem” (pH 5), in “physchem” (pH 6) and in “physchem” (pH 7) was more than 1000 µg/mL throughout.
Turning to `CCCC(=O)OC[C@H](NC(=O)[C@H](CO)NC(=O)CN)C(=O)N[C@@H](Cc1ccccc1)C(=O)N[C@@H](CC(C)C)C(=O)N[C@@H](CS)C(N)=O` [Ghr4, GSS(butyryl)FLC-NH2] (H-GSS(Butyryl)FLC-NH2), the “Solubility of hapten at pH5” value is listed as “insoluble”. In addition, the solubility in the data set “physchem” (pH 6) is more than 1000 µg/mL. This molecule showed a solubility in “physchem” (pH 7) of less than 100 µg/mL.
Take `CCCCCCCC(=O)OC[C@H](NC(=O)[C@H](CO)NC(=O)CN)C(=O)N[C@@H](Cc1ccccc1)C(=O)N[C@@H](CC(C)C)C(=O)N[C@@H](CS)C(N)=O` [Ghr5, GSS(octanoyl)FLC-NH2] (H-GSS(Octanoyl)FLC-NH2): the “Solubility of hapten at pH5” value is recorded as “insoluble”. The “Solubility of hapten at pH6” value (pH6) is on record as “insoluble”. Besides, the “Solubility of hapten at pH7” value (pH7) was “insoluble”.
With `CCCC(=O)OC[C@H](NC(=O)[C@H](CO)NC(=O)CN)C(=O)N[C@@H](Cc1ccccc1)C(=O)N[C@@H](CC(C)C)C(=O)NCCOCCOCCOCCOCCC(=O)N[C@@H](CS)C(N)=O` [PEG-Ghr4, GSS(butyryl)FL-PEG4-C-NH2] (H-GSS(Butyryl)FL[PEG4]C-NH2), the solubility in data set [1] (pH5), in data set [1] (pH6) and in data set [1] (pH7) was more than 1000 µg/mL in each case.
Consider `CCCCCCCC(=O)OC[C@H](NC(=O)[C@H](CO)NC(=O)CN)C(=O)N[C@@H](Cc1ccccc1)C(=O)N[C@@H](CC(C)C)C(=O)NCCOCCOCCOCCOCCC(=O)N[C@@H](CS)C(N)=O` [PEG-Ghr5, GSS(octanoyl)FL-PEG4-C-NH2] (H-GSS(Octanoyl)FL[PEG4]C-NH2), for which, in data set [2] (7 days, FIG. 2), the “Hydrolysis relative to Ghr5 without the spacer moiety” value is recorded as “less hydrolysis” and the “Oxidative degradation relative to Ghr5 without the spacer moiety” value was “significantly reduced oxidative degradation”. Besides, in data set [2] (pH 5, 7 days, 4° C.), the “Hydrolysis compared with native protein (rGhrelin)” value was “approximately the same amount of hydrolysis as the native protein” and the “Oxidative degradation compared with Ghr5 hapten” value was “significantly less oxidative degradation”. For the same molecule, the solubility in the data set “physchem” (pH 5) was more than 1000 µg/mL. Moreover, in the data set “physchem” (pH 6), the solubility was more than 1000 µg/mL. The molecule also gave a solubility in “physchem” (pH 7) of approximately 400 µg/mL (≈ 406 µM).
